Measurements taken from patent US8158792B2, “Spiropiperidines for use as tryptase inhibitors” (Janssen Pharmaceutica N.V., priority 2007, dated 2012).

Target: human lung tryptase
Test: β-Tryptase In-Vitro Enzyme Assay
Type: biochemical
Conditions: human lung tryptase 1 nM, substrate H-D-HHT-Ala-Arg-pNa 500 μM, pH 7.4, room temperature
Description: The β-tryptase assay was conducted with human lung tryptase (Cortex Biochem #CP3033) in an aqueous buffer (10 mM Tris, 10 mM Hepes, 150 mM NaCl, 0.1% PEG 8000, pH 7.4) using the chromogenic substrate H-D-HHT-Ala-Arg-pNa. […] Percent inhibition was calculated by comparing the initial reaction velocity of samples without inhibitor to those with inhibitor. The initial reaction velocities were analyzed using Microsoft Excel.

Structure (SMILES)	IC50 [nM]
NCc1ccc2c(c1)C1(CCN(C(=O)Cc3ccc(-c4ccccc4)cc3)CC1)CO2 [Cpd 92, 1-(4-phenyl-benzyl)carbonyl-5′-aminomethyl-spiro[piperidine-4,3′-(2H)-benzo[b]furan]]	490
COc1ccc(-c2cccc(C(=O)N3CCC4(CC3)COc3ccc(CN)cc34)c2)cc1 [Cpd 64, 1-[3-(4-methoxy-phenyl)-phenyl]carbonyl-5′-aminomethyl-spiro[piperidine-4,3′-(2H)-benzo[b]furan]]	95
NCc1ccc2c(c1)C1(CCN(C(=O)CCc3ccc4c(c3)OCO4)CC1)CO2 [Cpd 104, 1-(benzodioxol-5-ylethyl)carbonyl-5′-aminomethyl-spiro[piperidine-4,3′-(2H)-benzo[b]furan]]	4500
CSc1ccc(C(=O)N2CCC3(CC2)COc2ccc(CN)cc23)cc1 [Cpd 45, 1-(4-methylthio-phenyl)carbonyl-5′-aminomethyl-spiro[piperidine-4,3′-(2H)-benzo[b]furan]]	220
CCn1cc(C(=O)N2CCC3(CC2)COc2ccc(CN)cc23)c2cccc(C)c21 [Cpd 250, 1-(1-ethyl-7-methyl-indol-3-yl)carbonyl-5′-aminomethyl-spiro[piperidine-4,3′-(2H)-benzo[b]furan]]	440
NCc1ccc2c(c1)C1(CCN(C(=O)c3cc(C#Cc4ccccc4)ccn3)CC1)CO2 [Cpd 152, 1-[4-phenylethynyl-pyridin-2-yl]carbonyl-5′-aminomethyl-spiro[piperidine-4,3′-(2H)-benzo[b]furan]]	2.3
NCc1ccc2c(c1)C1(CCN(C(=O)c3cn(Cc4ccccc4)c4ccccc34)CC1)CO2 [Cpd 239, 1-(1-benzyl-indol-3-yl)carbonyl-5′-aminomethyl-spiro[piperidine-4,3′-(2H)-benzo[b]furan]]	270
NCc1ccc2c(c1)C1(CCN(C(=O)c3ccc(-c4ccc(Cl)cc4)o3)CC1)CO2 [Cpd 12, 1-[5-(4-chloro-phenyl)-furan-2-yl]carbonyl-5′-aminomethyl-spiro[piperidine-4,3′-(2H)-benzo[b]furan]]	66
NCc1ccc2c(c1)C1(CCN(C(=O)c3ccc(-c4cc(C(F)(F)F)ccc4Cl)o3)CC1)CO2 [Cpd 129, 1-[5-(2-chloro-5-trifluoromethyl-phenyl)-furan-2-yl]carbonyl-5′-aminomethyl-spiro[piperidine-4,3′-(2H)-benzo[b]furan]]	99
CSc1sc(C(=O)N2CCC3(CC2)COc2ccc(CN)cc23)c2c1C(=O)CCC2 [Cpd 155, 1-(3-methylthio-4-oxo-5,6,7-trihydro-4H-benzo[c]thien-1-yl)carbonyl-5′-aminomethyl-spiro[piperidine-4,3′-(2H)-benzo[b]furan]]	12
CN(C)c1ccc(C(=O)N2CCC3(CC2)COc2ccc(CN)cc23)cc1 [Cpd 55, 1-(4-dimethylamino-phenyl)carbonyl-5′-aminomethyl-spiro[piperidine-4,3′-(2H)-benzo[b]furan]]	1000
Cc1cccc(CCC(=O)N2CCC3(CC2)COc2ccc(CN)cc23)c1 [Cpd 98, 1-(3-methyl-phenethyl)carbonyl-5′-aminomethyl-spiro[piperidine-4,3′-(2H)-benzo[b]furan]]	1700
CSc1sc(C(=O)N2CCC3(CC2)COc2ccc(CN)cc23)c(Cl)c1S(=O)(=O)C(C)C [Cpd 157, 1-(3-chloro-4-isopropylsulfonyl-5-methylthio-thien-2-yl)carbonyl-5′-aminomethyl-spiro[piperidine-4,3′-(2H)-benzo[b]furan]]	17
NCc1ccc2c(c1)C1(CCN(C(=O)Cc3cccc(Cl)c3)CC1)CO2 [Cpd 81, 1-(3-chloro-benzyl)carbonyl-5′-aminomethyl-spiro[piperidine-4,3′-(2H)-benzo[b]furan]]	2300
Cn1nc(C(F)(F)F)cc1-c1ccc(C(=O)N2CCC3(CC2)COc2ccc(CN)cc23)s1 [Cpd 127, 1-[5-(1-methyl-3-trifluoromethyl-pyrazol-5-yl)-thien-2-yl]carbonyl-5′-aminomethyl-spiro[piperidine-4,3′-(2H)-benzo[b]furan]]	3700
NCc1ccc2c(c1)C1(CCN(C(=O)c3ccc(Cl)c(Cl)c3)CC1)CO2 [Cpd 1, 1-(3,4-dichlorophenyl)carbonyl-5′-aminomethyl-spiro[piperidine-4,3′-(2H)-benzo[b]furan]]	31

Next, values leading:

IC50 [nM]	Structure (SMILES)
41	NCc1ccc2c(c1)C1(CCN(C(=O)c3ccc(C#Cc4cc(F)cc(F)c4)o3)CC1)CO2 [Cpd 176, 1-[5-(3,5-difluoro-phenylethynyl)-furan-2-yl]carbonyl-5′-aminomethyl-spiro[piperidine-4,3′-(2H)-benzo[b]furan]]
260	Cc1c(C(=O)N2CCC3(CC2)COc2ccc(CN)cc23)oc2c1C(=O)CC(c1ccccc1)C2 (stereo not drawn) [Cpd 222, 1-(3-methyl-4-oxo-6-phenyl-5,6,7-trihydro-4H-benzo[b]furan-2-yl)carbonyl-5′-aminomethyl-spiro[piperidine-4,3′-(2H)-benzo[b]furan]]
140	CN(C)C(=N)c1ccc2c(c1)C1(CCN(C(=O)c3ccc(C#Cc4ccccc4)o3)CC1)CO2 [Cpd 313, 1-(5-phenylethynyl-furan-2-yl)carbonyl-5′-[dimethylamino(imino)methyl]-spiro[piperidine-4,3′-(2H)-benzo[b]furan]]
3100	NCc1ccc2c(c1)C1(CCN(C(=O)/C=C\c3c[nH]cn3)CC1)CO2 [Cpd 243, (Z)-1-(imidazol-4-ylethenyl)carbonyl-5′-aminomethyl-spiro[piperidine-4,3′-(2H)-benzo[b]furan]]
3200	Cc1c(C#N)sc2sc(C(=O)N3CCC4(CC3)COc3ccc(CN)cc34)c(C)c12 [Cpd 226, 1-(3,4-dimethyl-5-cyano-thieno[2,3-b]thien-2-yl)carbonyl-5′-aminomethyl-spiro[piperidine-4,3′-(2H)-benzo[b]furan]]
26	NCc1ccc2c(c1)C1(CCN(C(=O)Cc3cccc(Oc4ccccc4F)c3)CC1)CO2 [Cpd 210, 1-[3-(2-fluoro-phenoxy)-benzyl]carbonyl-5′-aminomethyl-spiro[piperidine-4,3′-(2H)-benzo[b]furan]]
120	NCc1ccc2c(c1)C1(CCN(C(=O)/C=C/c3c(F)cccc3F)CC1)CO2 [Cpd 195, (E)-1-(2,6-difluoro-phenylethenyl)carbonyl-5′-aminomethyl-spiro[piperidine-4,3′-(2H)-benzo[b]furan]]
26	NCc1ccc2c(c1)C1(CCN(C(=O)c3ccc(C#Cc4ccccc4)o3)CC1)CN2S(=O)(=O)c1cccs1 [Cpd 358, 1-(5-phenylethynyl-furan-2-yl)carbonyl-1′-thien-2-ylsulfonyl-5′-aminomethyl-spiro[piperidine-4,3′-(2H)-indole]]
340	COC(=O)c1ccc(C(=O)N2CCC3(CC2)COc2ccc(CN)cc23)s1 [Cpd 267, 1-(5-methoxycarbonyl-thien-2-yl)carbonyl-5′-aminomethyl-spiro[piperidine-4,3′-(2H)-benzo[b]furan]]
89	NCc1ccc2c(c1)C1(CCN(C(=O)c3cc4sccc4s3)CC1)CO2 [Cpd 204, 1-thieno[3,2-b]thien-2-ylcarbonyl-5′-aminomethyl-spiro[piperidine-4,3′-(2H)-benzo[b]furan]]
5300	NCc1ccc2c(c1)C1(CCN(C(=O)c3ccc(Cl)c(Cl)c3)CC1)CS2(=O)=O [Cpd 352, 1-(3,4-dichlorophenyl)carbonyl-5′-aminomethyl-spiro[piperidine-4,3′-(1,1-dioxo-(2H)-benzo[b]thiophene)]]
36	NCc1ccc2c(c1)C1(CCN(C(=O)c3ccc(C#Cc4ccccc4)o3)CC1)CN2S(=O)(=O)c1ccc(C(=O)O)o1 [Cpd 337, 1-(5-phenylethynyl-furan-2-yl)carbonyl-1′-(5-carboxy-furan-2-yl)sulfonyl-5′-aminomethyl-spiro[piperidine-4,3′-(2H)-indole]]
370	CCCc1ccc(OCc2ccc(C(=O)N3CCC4(CC3)COc3ccc(CN)cc34)o2)c(OC)c1 [Cpd 212, 1-[5-(2-methoxy-4-propyl-phenoxymethyl)-furan-2-yl]carbonyl-5′-aminomethyl-spiro[piperidine-4,3′-(2H)-benzo[b]furan]]
91	CCC(C)Sc1sc(C(=O)N2CCC3(CC2)COc2ccc(CN)cc23)c2c1C(=O)CC(C)(C)C2 (stereo not drawn) [Cpd 231, 1-(3-sec-butylthio-4-oxo-6,6-dimethyl-6,7-dihydro-5H-benzo[c]thien-1-yl)carbonyl-5′-aminomethyl-spiro[piperidine-4,3′-(2H)-benzo[b]furan]]
1500	NCc1ccc2c(c1)C1(CCN(C(=O)/C=C/c3ccoc3)CC1)CO2 [Cpd 251, (E)-1-(furan-3-ylethenyl)carbonyl-5′-aminomethyl-spiro[piperidine-4,3′-(2H)-benzo[b]furan]]
1300	NCCc1ccc2c(c1)C1(CCN(C(=O)c3ccc(C#Cc4ccccc4)o3)CC1)CO2 [Cpd 314, 1-(5-phenylethynyl-furan-2-yl)carbonyl-5′-aminoethyl-spiro[piperidine-4,3′-(2H)-benzo[b]furan]]
53	NCc1ccc2c(c1)C1(CCN(C(=O)/C=C/c3cccc(F)c3)CC1)CO2 [Cpd 161, (E)-1-(3-fluoro-phenylethenyl)carbonyl-5′-aminomethyl-spiro[piperidine-4,3′-(2H)-benzo[b]furan]]
510	NCc1ccc2c(c1)C1(CCN(C(=O)c3ccc(C=O)s3)CC1)CO2 [Cpd 245, 1-(5-formyl-thien-2-yl)carbonyl-5′-aminomethyl-spiro[piperidine-4,3′-(2H)-benzo[b]furan]]
760	NCc1ccc2c(c1)C1(CCN(C(=O)C=C3OC(=O)c4ccccc43)CC1)CO2 [Cpd 215, 1-[1-oxo-2-(3-oxo-3H-isobenzofuran-1-ylidene)-ethyl]-5′-aminomethyl-spiro[piperidine-4,3′-(2H)-benzo[b]furan]]
270	Cn1cc(C(=O)N2CCC3(CC2)COc2ccc(CN)cc23)c2ccccc21 [Cpd 237, 1-(1-methyl-indol-3-yl)carbonyl-5′-aminomethyl-spiro[piperidine-4,3′-(2H)-benzo[b]furan]]
